The values that follow come from patent US9187491B2, “Gambogenic acid derivatives, preparation method and application thereof” (Ninth People's Hospital, School Medicine Shanghai Jiao Tong …, priority 2012, dated 2015).

One test deals with mouse leukemia L1210. The following applies: compared with garcinia acid; cited from earlier work.
For test [1], the system named is Human breast cancer cells MCF-7. Briefly: growth inhibition of tumor cell MCF-7 (MTT colorimetric method). The note with it: for efficacy: MCF-7, assessment of results; for growth inhibition rate: 72 hours, MTT. Format: cell-based. An excerpt: (§1) The compounds synthesized from the present invention were studied by sulforhodamine B protein staining (sulfothodalnine B, SRB) and miceroculture tetrazolinetetrozohuln (MTT) colorimetric method respectively for in vitro anti-tumor activity (Cancer Res., 1988, 48 (3): 589).
(§2) The concentration gradient of the test compounds of the present invention is 10^−4M, 10^−5M, 10^−6M, 10^−7M, 10^−8M, and the test compounds are 6-methoxy methyl ester gambogenic acid, ethyl ester gambogenic acid, 6-ethoxy ethyl ester gambogenic acid, 6-acyl gambogenic acid, piperidine gambogenic acid, diethylamide gambogenic acyl, morpholine gambogenic acid, and 12-hydroxy gambogenic acid, and 8,9-epoxy gambogenic acid. The test compounds and positive control gambogenic acid were diluted with dimethyl sulfoxide. Inhibition rate(%)=[(control group OD value−administered group OD value)/control group OD value]×100%
Human breast cancer cells MCF-7 were cultured in DMEM containing 10% FBS, the cell with long-growth phase was formed into suspension and cultured in 96-well plates. The test compounds as experimental group with different concentrations were added into each well of the 96-well plates. Blank control group received an equal volume containing the highest concentration of solvent (ie, 10^−4M dimethyl sulfoxide) in DMEM. After incubation at 37° C. under 5% carbon dioxide conditions for 72 hours, each well was added with MTT to 1 mg/ml final concentration for incubation for 4 hours. The supernatant solution in each well was aspirated and added with 200 μl DMSO to dissolve crystals, and then OD values were measured at 490 nm by an automatic plate reader spectrophotometer. A tumor cell group without drugs is a blank control group.

In test [2] the test system is Human oral squamous cells carcinoma Cal27. Put plainly: growth inhibition of tumor cell Cal27 (SRB staining). It counts as cell-based. The following applies: for efficacy: Cal27, assessment of results; for growth inhibition rate: 72 hours, SRB.
Text: as §1, §2
Human oral squamous cells carcinoma Cal27 were cultured in DMEM containing 10% fetal bovine serum (FBS), the cells with long-growth phase were forming suspension and culturing in 96-well plates. 10 μl test compounds of different concentrations as experimental group were added into each well of the 96-well plates. Blank control group received an equal volume containing the highest concentration of solvent (ie, 10^−4M dimethyl sulfoxide) in DMEM. After incubation at 37° C. under 5% carbon dioxide conditions for 72 hours, the cells were fixed with trichloroacetic acid, and each well was added with 100 μl SRB solution, unbound SRB was washed away, and then OD values were measured at 550 nm by an automatic plate reader spectrophotometer. A tumor cell group without drugs is a blank control group.

The mark [3] stands for this setting: Homo sapiens, MCF7, 72 h, read-out: growth inhibition rate.
The mark [4] stands for this setting: Homo sapiens, CAL-27, 72 h, read-out: growth inhibition rate.

On to `CC(C)=CCC/C(C)=C/Cc1c(O)c(CC=C(C)C)c2c(c1O)C(=O)C1=CC3CC4C(C)(C)OC(C/C=C(/C)C(=O)O)(C3=O)C14O2` (stereo not shown) [gambogenic acid, Gambogenic acid], for which the “highest survival rate extended, relative to garcinia acid” value with mouse leukemia L1210 is “up to 2.45 times”. For the same compound, in test [1] (setting [3]), the inhibition at 0.01 µM came to 0%, the inhibition at 0.1 µM was 0%, the inhibition at 1 µM came out at 0% and the inhibition at 10 µM amounted to 100%. Also, the inhibition at 100 µM in test [1] (setting [3]) amounted to 100%. Moreover, in test [1], the efficacy result is reported as “invalid (Invalid: 10^−5M inhibition rate<85%)”. The efficacy result in test [2] was “invalid (Invalid: 10^−5M inhibition rate<85%)”. Also, in test [2] (setting [4]), the inhibition at 0.01 µM came out at 0%, the inhibition at 0.1 µM stood at 0%, the inhibition at 1 µM was found to be 5% and the inhibition at 10 µM was 100%. For the same compound, in test [2] (setting [4]), the inhibition at 100 µM is 100%.

As to `CC(C)=CCC/C(C)=C/Cc1c(O)c(CC=C(C)C)c2c(c1O)C(=O)C1=CC3CC4C(C)(C)OC(C/C=C(/C)C(=O)N5CCCCC5)(C3=O)C14O2` (stereo not shown) [piperidine gambogenic acid], the growth inhibition rate was found to be 100% in test [1] (MCF-7, 10^−4M); 100% in test [1] (MCF-7, 10^−5M); 67% in test [1] (MCF-7, 10^−6M); 0% in test [1] (MCF-7, 10^−7M); 0% in test [1] (MCF-7, 10^−8M); 100% in test [2] (Cal27, 10^−4M). Moreover, the growth inhibition rate in test [2] (Cal27, 10^−5M) was determined as 100%; in test [2] (Cal27, 10^−6M), 70%; in test [2] (Cal27, 10^−7M), 0%; in test [2] (Cal27, 10^−8M), 0%. For the same compound, the efficacy result in test [1] and in test [2] was “invalid (Invalid: 10^−5M inhibition rate<85%)” each time.
